The subject of data set [1] is B-16 mouse melanoma cells. Nature of the data set: Melanin formation inhibiting effects of EL-1 at the cellular level. The conditions noted are these: for Melanin formation amount: cultured 3 days, repetition number = 3; for Inhibition ratio (%): melanin formation relative to control; for Cell toxicity: final conc. 10 μg/ml. The data set is classed as cell-based. As to the method:
The whitening effect was tested at the cellular level by adding EL-1 obtained from the above EXAMPLES 1 to 7 to a cultured solution of B-16 mouse melanoma cells (Lotan R., Lotan D. Cancer Res. 40:3345-3350, 1980) as follows.
The EL-1 obtained in EXAMPLES 1 to 7 was added to a culture solution of B-16 mouse melanoma cells so that the final concentrations become 1 μg/ml, 5 μg/ml and 50 μg/ml respectively, and they were cultured for 3 days. After trypsin was added to the cells and the solution was removed from the culture container and centrifuged, melanin was extracted. 1 ml of sodium hydroxide solution (1 N concentration) was added to the extracted melanin and boiled for about 10 minutes to dissolve the melanin. The test was carried out in a way whereby the formed melanin amount was represented in absorbance per unit cell number, expressed as A400/10^6 cells by measuring the absorbance at 400 nm. After repeating this test 3 times, the melanin formation amount relative to the control was calculated as an inhibition ratio (%) using the average values.

Data set [2] concerns B-16 mouse melanoma cells. Described as above. It is filed as cell-based. The conditions noted are these: concentration of 50 μg/ml.

The structures appear in SMILES notation.

As for `C=C1CCC2C(/C=C(\C)C(=O)C3(OC(C)=O)CC(C)C(OC(=O)c4ccccc4)C3C1OC(C)=O)C2(C)C` (stereo not drawn) [EL-1, 5,15-diacetyl-3-benzoyllathyrol], the Melanin formation amount amounted to 0.032 ± 0.001 A400/10^6 cells in data set [1] (final conc. 1 μg/ml), 0.019 ± 0.003 A400/10^6 cells in data set [1] (final conc. 5 μg/ml) and 0.007 ± 0.001 A400/10^6 cells in data set [1] (final conc. 50 μg/ml). Also, the entries for the “Inhibition ratio (%)” value in data set [1] (final conc. 1 μg/ml), in data set [1] (final conc. 5 μg/ml) and in data set [1] (final conc. 50 μg/ml) were 28%, 57% and 85%, respectively. Moreover, the “Melanin synthesis inhibiting effect” value in data set [1] (mouse B-16 melanoma cells treated) is listed as “very strong melanin synthesis inhibiting effect”. Moreover, the Cell toxicity entry in data set [2] is reported as “does not show cell toxicity”.

Consider `Oc1ccc(O)cc1` [Hydroquinone, reference compound], for which, in data set [1] (final conc. 1 μg/ml), the Melanin formation amount stood at 0.025 ± 0.002 A400/10^6 cells and the “Inhibition ratio (%)” value was found to be 43%. Also, the Cell toxicity entry in data set [1] is reported as “Cell extinction”. The Cell toxicity entry in data set [1] (listed as hydroquinone) is recorded as “high cell toxicity”.
